{"source": "patent US5919761A", "about": "“Peptides for heparin and low molecular weight heparin anticoagulation reversal” (The Board of Regents of the University of Michigan, priority 1995, dated 1999)", "key": {"[1]": {"experiment": "Hemodynamic studies and total toxicity score after LMWH reversal at different rates, canine study", "conditions": "dogs, Logiparin; administered over 10 sec", "experimental": "(§1) The anticoagulation-reversing agents were administered rapidly over 10 seconds to maximize hemodynamic effects or more slowly over a 3 minute interval. Changes in LMWH anticoagulation occurring from metabolism alone were determined in a separate group of dogs not given any reversal agent.\n(§2) Hemodynamic studies were conducted by measuring mean arterial pressure (MAP) in mm Mercury, maximum percent changes in cardiac output (CO) and systemic oxygen consumption (VO2), and heart rate (HR) in beats per minute. Measurements and calculations were made at baseline, before LMWH administration, 3 minutes before reversal, every 30 seconds for 5 minutes after reversal, and at 10, 20, and 30 minutes after reversal.\nTTS were developed that reflected maximum declines in each of four parameters (MAP, CO, VO2 and HR) over the first 5 minutes after reversal in the same manner as described hereinabove."}, "[2]": {"tested_on": "LMWH (LHN-1, Logiparin)", "experiment": "Percent reversal of low molecular weight heparin anticoagulation, in vivo canine study, coagulation tests", "design": "species or system dogs", "conditions": "for aPTT reversal: Logiparin", "procedure": "Anticoagulation reversal was assessed by a number of standard coagulation tests performed upon samples of venous blood: activated clotting time (ACT), heparin concentration by assay for FXa inhibitory activity (FXa), thrombin clotting time (TCT), and heparin concentration by assay for FIIa inhibitory activity (FIIa). Measurements were made 3 minutes prior to heparin reversal (baseline) and 3 minutes, 10 minutes, and 30 minutes post-administration of the heparin reversal agent. […] The coagulation data were corrected for naturally occurring metabolism."}, "[3]": {"experiment": "Hemodynamic studies and total toxicity score after LMWH reversal, canine study", "conditions": "dogs", "experimental": "as §2\nTotal toxicity scores (TTS) were developed that reflected maximum declines in each of four parameters (MAP, CO, VO2 and HR) over the first 5 minutes after reversal. The maximum changes occurring in an individual dog over the first 5 minutes were divided by the standard deviation derived from the entire group of tested animals and the four scores were added, resulting in a TTS for each individual dog. The TTS values for each dog were then summed to obtain an average TTS and SD for each peptide studied. The more negative the value of TTS, the more toxic the compound."}, "[4]": {"experiment": "Platelet count, leukocyte count and bleeding time after LMWH reversal at different rates, canine study", "assay_type": "in vivo, dogs", "conditions": "dogs, Logiparin; administered over 10 sec", "experimental": "as §1"}, "[5]": {"tested_on": "LMWH (LHN-1, Logiparin)", "experiment": "Percent reversal of LMWH anticoagulation, agents administered at different rates, canine study", "assay_type": "in vivo, dogs", "procedure": "Anticoagulation reversal was assessed by a number of standard coagulation tests performed upon samples of venous blood in the manner described hereinabove. Measurements were made 3 minutes prior to heparin reversal (baseline) and 3 minutes, 10 minutes, and 30 minutes post-administration of the heparin reversal agent."}, "[6]": {"experiment": "Platelet and white blood cell count after LMWH reversal, canine study", "assay_type": "in vivo", "conditions": "dogs, Logiparin", "procedure": "In addition to the measurements reported on Table 6, studies were conducted to measure the activated partial thromboplastin time (aPTT), platelet count, and white blood cell count. […] However, the [+18B] variant produced greater aPTT reversal than protamine at the 3, 10 and 30 minute measurements (64%, 95%, and 93%, respectively, as compared to 50%, 83%, and 78%, respectively, for protamine)."}, "[7]": {"conditions": "Logiparin, maximum percent change"}, "[8]": {"conditions": "administered over 10 sec, 3 min"}, "[9]": {"conditions": "administered over 10 sec, 10 min"}, "[10]": {"conditions": "administered over 10 sec, 30 min"}}, "note": "Peptide text beside a SMILES is read from it."}
{"smiles": "CC(=O)N1CCC[C@H]1C(=O)N[C@@H](C)C(=O)N[C@@H](CCCCN)C(=O)N[C@@H](CCCCN)C(=O)N[C@@H](C)C(=O)N[C@@H](C)C(=O)N[C@@H](CCCCN)C(=O)N[C@@H](CCCCN)C(=O)N[C@@H](C)C(=O)N[C@@H](CCCCN)C(=O)N[C@@H](CCCCN)C(=O)N[C@@H](C)C(=O)N[C@@H](C)C(=O)N[C@@H](CCCCN)C(=O)N[C@@H](CCCCN)C(=O)N[C@@H](C)C(=O)N[C@@H](CCCCN)C(=O)N[C@@H](CCCCN)C(=O)N[C@@H](C)C(=O)N[C@@H](C)C(=O)N[C@@H](CCCCN)C(=O)N[C@@H](CCCCN)C(=O)N[C@@H](C)C(=O)N[C@@H](CCCCN)C(=O)N[C@@H](CCCCN)C(=O)N[C@@H](C)C(=O)N[C@@H](C)C(=O)N[C@@H](CCCCN)C(=O)N[C@@H](CCCCN)C(=O)N[C@@H](C)C(=O)N[C@@H](CCCCN)C(=O)N[C@@H](CCCCN)C(N)=O", "note": "[[+18B], acetyl-PA(K2 A2 K2 A)4 K2 -amide] (Ac-PAKKAAKKAKKAAKKAKKAAKKAKKAAKKAKK-NH2)", "values": [{"measurement": "Total Toxicity Score", "setting": "[1]", "value": "-3.1 ± 1.5"}, {"measurement": "ΔCO", "setting": "[1]", "value": -18, "unit": "%"}, {"measurement": "ΔHr", "setting": "[1]", "value": -9, "unit": "beats per minute"}, {"measurement": "ΔMAP", "setting": "[1]", "value": -10, "unit": "mm Mercury"}, {"measurement": "ΔVO2", "setting": "[1]", "value": -12, "unit": "%"}, {"measurement": "aPTT reversal", "setting": "[2]; dogs, 3 minute measurement", "value": 64, "unit": "%"}, {"measurement": "aPTT reversal", "setting": "[2]; dogs, 10 minute measurement", "value": 95, "unit": "%"}, {"measurement": "aPTT reversal", "setting": "[2]; dogs, 30 minute measurement", "value": 93, "unit": "%"}, {"measurement": "Percent reversal of LMWH anticoagulation, ACT", "setting": "[2]; dogs, Logiparin 150 IU/kg, agent 1.5 mg/kg IV after 30 min, 3 min post-administration, corrected for metabolism", "value": 87, "unit": "%"}, {"measurement": "Percent reversal of LMWH anticoagulation, FNa", "setting": "[2]; same study, 3 min", "value": 96, "unit": "%"}, {"measurement": "Percent reversal of LMWH anticoagulation, FXa", "setting": "[2]; same study, 3 min", "value": 64, "unit": "%"}, {"measurement": "Percent reversal of LMWH anticoagulation, TCT", "setting": "[2]; same study, 3 min", "value": 99, "unit": "%"}, {"measurement": "Percent reversal of LMWH anticoagulation, ACT", "setting": "[2]; same study, 10 min", "value": 93, "unit": "%"}, {"measurement": "Percent reversal of LMWH anticoagulation, FNa", "setting": "[2]; same study, 10 min", "value": 72, "unit": "%"}, {"measurement": "Percent reversal of LMWH anticoagulation, FXa", "setting": "[2]; same study, 10 min", "value": 34, "unit": "%"}, {"measurement": "Percent reversal of LMWH anticoagulation, TCT", "setting": "[2]; same study, 10 min", "value": 95, "unit": "%"}, {"measurement": "Percent reversal of LMWH anticoagulation, ACT", "setting": "[2]; same study, 30 min", "value": 102, "unit": "%"}, {"measurement": "Percent reversal of LMWH anticoagulation, FNa", "setting": "[2]; same study, 30 min", "value": 74, "unit": "%"}, {"measurement": "Percent reversal of LMWH anticoagulation, FXa", "setting": "[2]; same study, 30 min", "value": 52, "unit": "%"}, {"measurement": "Percent reversal of LMWH anticoagulation, TCT", "setting": "[2]; same study, 30 min", "value": 96, "unit": "%"}, {"measurement": "Total Toxicity Score", "setting": "[3]; LMWH, 50% less dose (1:2 peptide to LMWH)", "value": "about -1.62"}, {"measurement": "maximum mean increase in pulmonary artery diastolic (PAD) pressure", "setting": "[3]; Logiparin", "value": "no increase"}, {"measurement": "maximum mean increase in pulmonary artery systolic (PAS) pressure", "setting": "[3]; Logiparin", "value": "no increase"}, {"measurement": "ΔHR", "setting": "[3]; Logiparin", "value": -9, "unit": "beats per minute"}, {"measurement": "ΔMAP", "setting": "[3]; Logiparin", "value": -10, "unit": "mm Mercury"}, {"measurement": "Total Toxicity Score", "setting": "[3]; Logiparin, first 5 minutes after reversal, 1:1 peptide to LMWH", "value": "-4.1 ± 1.6"}, {"measurement": "ΔCO", "setting": "[3]; [7]", "value": -18, "unit": "%"}, {"measurement": "ΔVO2", "setting": "[3]; [7]", "value": -12, "unit": "%"}, {"measurement": "Maximal decline in leukocyte count", "setting": "[4]", "value": -21, "unit": "%"}, {"measurement": "Maximal thrombocytopenia", "setting": "[4]", "value": -56, "unit": "%"}, {"measurement": "Percent reversal of LMWH anticoagulation, FNa", "setting": "[5]; [8]", "value": 95, "unit": "%"}, {"measurement": "Percent reversal of LMWH anticoagulation, FXa", "setting": "[5]; [8]", "value": 64, "unit": "%"}, {"measurement": "Percent reversal of LMWH anticoagulation, TCT", "setting": "[5]; [8]", "value": 99, "unit": "%"}, {"measurement": "Percent reversal of LMWH anticoagulation, ACT", "setting": "[5]; [9]", "value": 87, "unit": "%"}, {"measurement": "Percent reversal of LMWH anticoagulation, FNa", "setting": "[5]; [9]", "value": 72, "unit": "%"}, {"measurement": "Percent reversal of LMWH anticoagulation, FXa", "setting": "[5]; [9]", "value": 34, "unit": "%"}, {"measurement": "Percent reversal of LMWH anticoagulation, TCT", "setting": "[5]; [9]", "value": 95, "unit": "%"}, {"measurement": "Percent reversal of LMWH anticoagulation, ACT", "setting": "[5]; [10]", "value": 98, "unit": "%"}, {"measurement": "Percent reversal of LMWH anticoagulation, FNa", "setting": "[5]; [10]", "value": 74, "unit": "%"}, {"measurement": "Percent reversal of LMWH anticoagulation, FXa", "setting": "[5]; [10]", "value": 52, "unit": "%"}, {"measurement": "Percent reversal of LMWH anticoagulation, TCT", "setting": "[5]; [10]", "value": 100, "unit": "%"}, {"measurement": "Percent reversal of LMWH anticoagulation, ACT", "setting": "[5]; dogs, Logiparin, agent administered over 10 sec, 3 min post-administration", "value": 87, "unit": "%"}, {"measurement": "decline in white blood cell count", "setting": "[6]", "value": "greatest"}, {"measurement": "mean decline in platelet count", "setting": "[6]", "value": -56, "unit": "%"}]}
